# Assays:
# Test in all cases: relative viability (nuclei count vs DMSO), 5 days (fraction); higher = more cells survive
# [1] = compound: CC1(C)CNc2cc(NC(=O)c3cccnc3NCc3ccncc3)ccc21 [Motesanib] + C[C@]1(O)C[C@@H](c2nc(-c3ccc4ccc(-c5ccccc5)nc4c3)c3c(N)nccn32)C1 [Linsitinib] (partner 1 µM)
# Outline: (§1)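 Relative viability equals treated-well nuclei counts divided by vehicle-well nuclei counts. Counts came from 4× images of lung cancer cell lines grown in 1536-well plates for 5 days after pin-tool dosing on the day after seeding. Dosing used one drug alone or a fixed anchor-drug dose plus five library-drug doses (not always all listed) in √10 steps, and values are medians of duplicate plates.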
# [2] = compound: C[C@@]1(C(=O)Nc2ccc(F)nc2)CCCN1c1nc(Nc2cc(C3CC3)n[nH]2)c2cccn2n1 + CC(C)C[C@H](NC(=O)[C@H](Cc1ccccc1)NC(=O)c1cnccn1)B(O)O [Bortezomib] (partner 0.002 µM)
# Outline: as §1
# [3] = compound: C[C@@]1(C(=O)Nc2ccc(F)nc2)CCCN1c1nc(Nc2cc(C3CC3)n[nH]2)c2cccn2n1 + COc1cc2c(Oc3ccc(NC(=O)C4(C(=O)Nc5ccc(F)cc5)CC4)cc3F)ccnc2cc1OCCCN1CCOCC1 [Foretinib] (partner 0.25 µM)
# Outline: as §1
# [4] = compound: C[C@@]1(C(=O)Nc2ccc(F)nc2)CCCN1c1nc(Nc2cc(C3CC3)n[nH]2)c2cccn2n1 + COc1cccc2cc(-c3nc([C@H]4CC[C@H](C(=O)O)CC4)n4ncnc(N)c34)[nH]c12 [OSI-027] (partner 0.5 µM)
# Outline: as §1
cell line,measurement,setting,value
UMC-11,relative viability,[1]; first compound 0.01 µM,0.984
same,relative viability,[1]; first compound 0.03162 µM,0.985
same,relative viability,[1]; first compound 0.1 µM,1.04
same,relative viability,[1]; first compound 0.3162 µM,1
same,relative viability,[1]; first compound 1 µM,1.13
same,relative viability,[2]; first compound 0.04 µM,0.79
same,relative viability,[2]; first compound 0.1265 µM,0.829
same,relative viability,[2]; first compound 0.4 µM,0.598
same,relative viability,[2]; first compound 1.265 µM,0.733
same,relative viability,[3]; first compound 0.04 µM,1.09
same,relative viability,[3]; first compound 0.1265 µM,1.12
same,relative viability,[3]; first compound 0.4 µM,0.901
same,relative viability,[3]; first compound 1.265 µM,0.299
same,relative viability,[4]; first compound 0.04 µM,0.531
same,relative viability,[4]; first compound 0.1265 µM,0.416
same,relative viability,[4]; first compound 0.4 µM,0.485
same,relative viability,[4]; first compound 1.265 µM,0.37

# Source: the supplement of paper PMC10307832
